Several values for one entry are separate records, joined by “and”; a condition that tells them apart may be missing. Equal entries are not always repeated. Toxic doses and inconclusive results are not listed. How the source made its calls: active means survival T/C of 150% or more; inactive means T/C below 125% in these data.
Tested on: P388 leukemia ip, CD2F1 mice, survival T/C
Assay: NCI In Vivo Anticancer Drug Screen. Data for tumor model P388 Leukemia (intraperitoneal) in CD2F1 (CDF1) mice
Settings: endpoint: median survival time, higher = longer survival
Procedure, shortened: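 Mice carrying the transplanted tumor received test compound or vehicle. Survival was recorded in each group, and the value is the treated-group measurement divided by that of the vehicle-treated control group.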

[1] = dose: 60.0 mg/kg/injection, schedule: Q01DX005 (ip), vehicle: saline with Tween-80
[2] = dose: 120.0 mg/kg/injection, schedule: Q01DX005 (ip), vehicle: saline with Tween-80
[3] = dose: 240.0 mg/kg/injection, schedule: Q01DX005 (ip), vehicle: saline with Tween-80
[4] = dose: 100.0 mg/kg/injection, schedule: Q01DX009 (ip), vehicle: saline with Tween-80
[5] = dose: 200.0 mg/kg/injection, schedule: Q01DX009 (ip), vehicle: saline with Tween-80
[6] = dose: 100.0 mg/kg/injection, schedule: Q01DX001 (ip), vehicle: saline with Tween-80
[7] = dose: 200.0 mg/kg/injection, schedule: Q01DX001 (ip), vehicle: saline with Tween-80
[8] = dose: 50.0 mg/kg/injection, schedule: Q01DX009 (ip), vehicle: saline
[9] = dose: 50.0 mg/kg/injection, schedule: Q01DX009 (ip), vehicle: saline with Tween-80
[10] = dose: 25.0 mg/kg/injection, schedule: Q01DX009 (ip), vehicle: Klucel (hydroxypropylcellulose) (HPC)
[11] = dose: 50.0 mg/kg/injection, schedule: Q01DX009 (ip), vehicle: Klucel (hydroxypropylcellulose) (HPC)

Measured: T/C

CCN(CC)c1ccc(N=Nc2nc(Cl)c(/C=C3\C(=O)c4ccccc4C3=C(C#N)C#N)s2)c(NC(C)=O)c1
inactive: [1] 96 % of control | [2] 97 % of control | [3] 95 % of control

CCCCCCCCCCCC[S+](C)CCCCCCCC (centres undefined)
inactive: dose: 0.78 mg/kg/injection, schedule: Q01DX005 (ip), vehicle: saline with Tween-80 111 % of control and 117 % of control | dose: 1.56 mg/kg/injection, schedule: Q01DX005 (ip), vehicle: saline with Tween-80 122 % of control | dose: 3.13 mg/kg/injection, schedule: Q01DX005 (ip), vehicle: saline with Tween-80 124 % of control

c1cc(Nc2ccc3c(c2)OCO3)c2cc(C3CCCCC3)ccc2n1
inactive: [1] 97 % of control | [2] 98 % of control | [3] 100 % of control

Cc1c2c(c(C)c3c1[nH]c1ccccc13)C(C#N)N(C(=O)c1ccccc1)C=C2 (centres undefined)
inactive: dose: 6.25 mg/kg/injection, schedule: Q04DX003 (ip), vehicle: distilled water + Tween-80 100 % of control | dose: 12.5 mg/kg/injection, schedule: Q04DX003 (ip), vehicle: distilled water + Tween-80 102 % of control | dose: 25.0 mg/kg/injection, schedule: Q04DX003 (ip), vehicle: distilled water + Tween-80 90 % of control | dose: 50.0 mg/kg/injection, schedule: Q04DX003 (ip), vehicle: distilled water + Tween-80 88 % of control | dose: 100.0 mg/kg/injection, schedule: Q04DX003 (ip), vehicle: distilled water + Tween-80 90 % of control | dose: 200.0 mg/kg/injection, schedule: Q04DX003 (ip), vehicle: distilled water + Tween-80 94 % of control

Cc1ccc(C(=Nc2ccccc2)N=S(c2ccccc2)c2ccccc2)cc1
inactive: dose: 50.0 mg/kg/injection, schedule: Q04DX003 (ip), vehicle: saline with Tween-80 97 % of control | dose: 100.0 mg/kg/injection, schedule: Q04DX003 (ip), vehicle: saline with Tween-80 92 % of control | dose: 200.0 mg/kg/injection, schedule: Q04DX003 (ip), vehicle: saline with Tween-80 97 % of control

CC(=O)/C(=C\c1cccc(Cl)c1)C(=O)CCN(C)C
inactive: [1] 108 % of control and 111 % of control | [2] 115 % of control

Cc1cc(Br)ccc1N
inactive: [4] 110 % of control | [5] 110 % of control | dose: 400.0 mg/kg/injection, schedule: Q01DX009 (ip), vehicle: saline with Tween-80 105 % of control

CCOC(=O)C(=CNc1ccc2c(c1)OCO2)C(=O)OCC
inactive: dose: 50.0 mg/kg/injection, schedule: Q01DX005 (ip), vehicle: distilled water + Tween-80 + alcohol 100 % of control | dose: 100.0 mg/kg/injection, schedule: Q01DX005 (ip), vehicle: distilled water + Tween-80 + alcohol 95 % of control | dose: 200.0 mg/kg/injection, schedule: Q01DX005 (ip), vehicle: distilled water + Tween-80 + alcohol 102 % of control

CC1(c2ccccc2)NN(S(=O)(=O)c2ccccc2)C(c2ccccc2)(c2ccccc2)/C1=N/Nc1ccccc1 (centres undefined)
inactive: dose: 50.0 mg/kg/injection, schedule: Q01DX001 (ip), vehicle: saline with Tween-80 93 % of control | [6] 88 % of control | [7] 89 % of control

N#CC1(OC2OC(CO)C(O)C(O)C2O)C=CC(O)C1 (centres undefined)
inactive: dose: 25.0 mg/kg/injection, schedule: Q01DX005 (ip), vehicle: saline 91 % of control | dose: 50.0 mg/kg/injection, schedule: Q01DX005 (ip), vehicle: saline 94 % of control | dose: 100.0 mg/kg/injection, schedule: Q01DX005 (ip), vehicle: saline 106 % of control

COc1ccc(-c2cc3cc(OC)c(OC)cc3cn2)cc1OC
inactive: dose: 6.25 mg/kg/injection, schedule: Q01DX009 (ip), vehicle: suspension in saline 99 % of control | dose: 12.5 mg/kg/injection, schedule: Q01DX009 (ip), vehicle: suspension in saline 98 % of control | dose: 25.0 mg/kg/injection, schedule: Q01DX009 (ip), vehicle: saline 98 % of control | dose: 25.0 mg/kg/injection, schedule: Q01DX009 (ip), vehicle: suspension in saline 97 % of control | [8] 90 % of control

ClC1=C(Cl)C2(Cl)C3C(c4ccc(I)cc4C4C3C3(Cl)C(Cl)=C(Cl)C4(Cl)C3(Cl)Cl)C1(Cl)C2(Cl)Cl (centres undefined)
inactive: [8] 105 % of control | dose: 100.0 mg/kg/injection, schedule: Q01DX009 (ip), vehicle: saline 108 % of control | dose: 200.0 mg/kg/injection, schedule: Q01DX009 (ip), vehicle: saline 105 % of control

CC1CN1CCS(=O)(=O)CCN1CC1C (centres undefined)
inactive: [9] 95 % of control | [4] 104 % of control

C[C@]12CCC[C@@H]3C[C@@]31C[C@@H]([C@@]1(C)CO1)CC2
inactive: [10] 98 % of control and 91 % of control | [11] 102 % of control and 106 % of control | dose: 100.0 mg/kg/injection, schedule: Q01DX009 (ip), vehicle: Klucel (hydroxypropylcellulose) (HPC) 102 % of control and 104 % of control and 88 % of control | dose: 200.0 mg/kg/injection, schedule: Q01DX009 (ip), vehicle: Klucel (hydroxypropylcellulose) (HPC) 100 % of control and 120 % of control

CCNc1ccc2c(-c3ccccc3C(=O)O)c3ccc(=[N+](CC)CC)cc-3oc2c1
inactive: dose: 50.0 mg/kg/injection, schedule: Q01DX005 (ip), vehicle: saline with Tween-80 105 % of control | dose: 100.0 mg/kg/injection, schedule: Q01DX005 (ip), vehicle: saline with Tween-80 95 % of control

CSc1nc(N)c(N=O)c(N)n1
inactive: dose: 50.0 mg/kg/injection, schedule: Q04DX002 (ip), vehicle: suspension in saline 100 % of control | dose: 100.0 mg/kg/injection, schedule: Q04DX002 (ip), vehicle: suspension in saline 101 % of control | dose: 200.0 mg/kg/injection, schedule: Q04DX002 (ip), vehicle: suspension in saline 104 % of control

O=C(Nc1ccccc1)ON=C(c1ccccc1)c1ccccc1
inactive: [6] 97 % of control | [7] 93 % of control | dose: 400.0 mg/kg/injection, schedule: Q01DX001 (ip), vehicle: saline with Tween-80 112 % of control

C=C(C)C12CC(C)C34OC5(OC1C3C1OC1(CO)C(O)C1(O)C(OC(=O)c3ccccc3)C(C)C(C(C)CCCCCCC5O)C14)O2 (centres undefined)
active: dose: 30.0 micrograms/kg/injection, schedule: Q01DX009 (ip), vehicle: distilled water + alcohol 152 % of control
inactive: dose: 1.9 micrograms/kg/injection, schedule: Q01DX009 (ip), vehicle: distilled water + alcohol 102 % of control | dose: 3.8 micrograms/kg/injection, schedule: Q01DX009 (ip), vehicle: distilled water + alcohol 115 % of control | dose: 7.5 micrograms/kg/injection, schedule: Q01DX009 (ip), vehicle: distilled water + alcohol 120 % of control

O=c1[nH]c(=S)[nH]cc1Oc1ccc(I)cc1
inactive: dose: 12.5 mg/kg/injection, schedule: Q01DX009 (ip), vehicle: Klucel (hydroxypropylcellulose) (HPC) 106 % of control | [10] 107 % of control | [11] 104 % of control

N=C1N=Nc2nc(C(C(=O)c3ccc(O)cc3O)c3nc4n(c3O)C(=N)N=N4)c(O)n21 (centres undefined)
inactive: [1] 100 % of control | [2] 104 % of control | [3] 103 % of control

CN(C)C1=Nc2ccc(Cl)cc2C(c2ccccc2)=NC1O (centres undefined)
inactive: dose: 60.0 mg/kg/injection, schedule: Q01DX005 (ip), vehicle: Klucel (hydroxypropylcellulose) (HPC) 95 % of control | dose: 120.0 mg/kg/injection, schedule: Q01DX005 (ip), vehicle: Klucel (hydroxypropylcellulose) (HPC) 98 % of control | dose: 240.0 mg/kg/injection, schedule: Q01DX005 (ip), vehicle: Klucel (hydroxypropylcellulose) (HPC) 100 % of control

CCOC(=O)c1cnc2ccccc2c1N=[N+]=[N-]
inactive: [1] 94 % of control | [2] 99 % of control | [3] 103 % of control

CC(=O)c1ccc(NC(O)C(Cl)(Cl)Cl)cc1 (centres undefined)
inactive: dose: 25.0 mg/kg/injection, schedule: Q01DX009 (ip), vehicle: saline with Tween-80 99 % of control | [9] 96 % of control | [4] 103 % of control | [5] 107 % of control

O=C1SCCC1CO (centres undefined)
inactive: dose: 25.0 mg/kg/injection, schedule: Q04DX003 (ip), vehicle: saline 100 % of control | dose: 50.0 mg/kg/injection, schedule: Q04DX003 (ip), vehicle: saline 106 % of control

CCOC(=O)N1C=CC(CC(=O)N(CC)CC)C=C1 (tested in a mixture with another compound)
inactive: dose: 60.0 mg/kg/injection, schedule: Q01DX005 (ip), vehicle: saline 102 % of control | dose: 120.0 mg/kg/injection, schedule: Q01DX005 (ip), vehicle: saline 96 % of control | dose: 240.0 mg/kg/injection, schedule: Q01DX005 (ip), vehicle: saline 108 % of control

From PubChem BioAssay AID330 (DTP/NCI, 2004)
